According to US20170158636A1, “FUNCTIONALISED AND SUBSTITUTED CARBAZOLES AS ANTI-CANCER AGENTS” (Novogen Ltd., priority 2014, published 2017):

Experiments:
A375 melanoma xenograft = test: A375 melanoma flank xenograft model; type: in vivo; conditions: IV 60 mg/kg in 30% (w/v) Captisol daily for 16 days, mice
Method: FIG. 5: Effect of compound 1001 on tumour growth in vivo. Compound 1001 was administered IV at 60 mg/kg for 16 days in a flank xenograft model of melanoma (A375). Tumour volume was measured every 2-3 days. **p<0.01, ***P<0.001.
In vivo efficacy studies for compound 1001 were conducted using an A375 melanoma xenograft model in Foxn-1 nu/nu athymic mice. The human melanoma cell line A375 (sourced from American Type Culture Collection (ATCC), USA) was used for developing the flank xenograft model. Briefly, five million cells were injected subcutaneously in the right flank region of the animal. When the tumors reached 130-150 mm^3 the animals were randomized into two groups, each group with 8 animals in them, so that the average tumor volume of all the groups was same.
Compound 1001 was delivered intravenously (IV) at 60 mg/kg in a 30% (w/v) Captisol (cyclodextrin-containing) formulation daily for 16 days. The control group was dosed with the Captisol vehicle alone.

Tpm3.1 = Tpm3.1 (Homo sapiens, UniProt P06753); test: Cell free actin co-sedimentation assay; type: binding; conditions: 50 μM compound, 3 μM F-actin
Method: (§1) FIG. 3: Impact of compound 1001 on the polymerization of tropomyosin and its subsequent association with actin. Increasing concentrations of (A) cytoskeletal Tpm3.1 or (B) muscle alpha-fast Tm (0.3-4.0 μM) were pre-incubated with 1% (v/v) DMSO (vehicle control) or 50 μM ATM-1001 prior to combining with 3 μM F-actin. The Tm/F-actin mixture was sedimented and the ratio of tropomyosin:actin in the pellet, normalized to the ratio that occurs at tropomyosin saturation, was plotted against the concentration of unbound tropomyosin in the supernatant.
(§2) Cell free actin co-sedimentation assays were preformed to analyze the impact of compound 1001 on the polymerization of tropomyosin and subsequent association with actin. The impact of compound 1001 on Tpm3.1 binding was compared to the striated muscle isoform, alpha-fast Tm, which has an unrelated C-terminus.

alpha-fast Tm = alpha-fast Tm (Homo sapiens, UniProt P09493); test: Cell free actin co-sedimentation assay; type: binding; conditions: 50 μM compound, 3 μM F-actin
Method: as §1, §2

SK-Mel-28 melanoma cells = test: Anti-proliferative activity, cell-titre luminescent viability assay; type: cell-based; conditions: Homo sapiens, 72 hours exposure
Method: (§3) The ability of compounds 1001-1018 and 1037-1039 to inhibit the proliferation of cancer cells representative of neuroblastoma, melanoma, prostate cancer, colorectal cancer, non-small cell lung carcinoma, and triple negative breast cancer was assessed (Table 1).
(§4) Briefly, a pre-determined number of cells as calculated from cell growth assays for each of the cell lines employed were seeded into their respective culture medium (using ATCC culture parameters—http://www.atcc.org) and cultured for 24 hours at 37° C. and 5% CO2 in 96-well culture plates. Once attached, each cell line was then exposed to increasing concentrations of each respective analogue (0.03, 0.3, 3 and 30 μM for compounds 1001-13 and 1015-18; 0.1, 0.3, 1, 3, 10 and 30 μM for compounds 1014 and 1037-39), cultured for a further 72 hours and exposed to cell-titre luminescent reagent (100 μL/well) for a further 30 minutes) to measure cell viability. Luminescence was captured using an EnVision multilabel reader and the data for each analogue concentration compared against no treatment control. For compounds 1001-13 and 1015-18, semi-log plots of Percent of Control versus concentration were prepared and IC50 determined using linear regression analysis. For compounds 1014 and 1037-39, cell viability was normalized to control (vehicle alone) and dose-response curves, and half maximal effective concentration (EC50) values were determined using Graph Pad Prism 6 (nonlinear regression sigmoidal dose-response variable slope).

[1] = system: DU145 prostate cancer cells; test: as above; type: cell-based; conditions: Homo sapiens, DU-145, 72 hours exposure
Method: as §3, §4

[2] = system: PC3 prostate cancer cells; test: as above; type: cell-based; conditions: 72 hours exposure
Method: as §3, §4

[3] = system: A549 lung (NSLC) cancer cells; test: as above; type: cell-based; conditions: Homo sapiens, 72 hours exposure
Method: as §3, §4

[4] = system: MDA-MB-231 breast cancer cells; test: as above; type: cell-based; conditions: Homo sapiens, 72 hours exposure
Method: as §3, §4

[5] = system: actin cytoskeleton in SK-N-SH neuroblastoma cells; test: Microfilament disruption assay (phalloidin staining, linear feature quantitation); type: cell-based; conditions: 0-40 μM, 24 hours post treatment
Method: FIG. 1: Imaging and quantitation of actin filaments in SK-N-SH neuroblastoma cells treated with compound (A) 1007, (B) 1013 and (C) 1016. Cells were stained with 488-Atto-Phallodin and DAPI to visualize the actin filament bundles and the nucleus, respectively. Shown in the top panel is a representative gray scale immunofluorescent image from control (vehicle alone), 5 μM and 10 μM treated cells. […] The coloured lines indicate the detected actin filaments. Also shown is the quantitation of cell number, filament number/cell and filament number/cell area (μM^2). Statistical analysis was performed using a one way ANNOVA-multiple comparison where each drug treated group was compared to the control. ****p<0.0001, […].
The ability of compounds 1007, 1013 and 1016 to disrupt the actin cytoskeleton was assessed in vitro using the microfilament disruption assay (FIG. 1).
Briefly, SK-N-SH neuroblastoma cells were seeded at 1800 cells/well in a 384 Perkin Elmer High Content Imaging “Cell Carrier” plate and left to plate down 24 hours prior to treatment. Cells were then treated with 0-40 μM of the test compounds (1:2 serial dilution in a 10 point dose response). 24 hours post treatment, cells were fixed with 4% w/v paraformaldehyde (PBS), permeabilized with Triton-X-100 and stained with 488-Atto-Phallodin and DAPI to visualize the actin filament bundles and the nucleus respectively. Single plane images were obtained on the Perkin Elmer Opera confocal microscope using a 20× objective. Twelve fields of view per condition (representing approximately 300-800 cells) were imaged. Images were then exported and changes in the organization and numbers of actin filaments within the cell were quantitated using a linear feature detection algorithm developed by CSIRO (Vindin et al. 2014). This algorithm detects the “ridge lines” or “peaks” in local pixel intensity in the cell image. It is these “ridge lines” that correspond to actin filament bundles and allow us to quantitate the number of filaments per cell.

Skeletal myosin II = test: Actin-activated myosin II ATPase activity; type: biochemical; conditions: 50 μM, absence of Tpm3.1
Method: FIG. 4: Effect of anti-tropomyosin compounds on actin-activated myosin II ATPase activity. Skeletal myosin II (30-60 nM) was incubated with 1% (v/v) DMSO or 50 μM of Blebbistatin, TR100 or compound 1001 for 5 min prior to mixing with 3 μM F-actin. Reactions were initiated with 1 mM ATP and inorganic phosphate release was detected spectrophotometrically. Data represents mean±SEM, for n=2-4 independent repeats. **P-value, 0.001<0.01.
To exclude an off-target activity, the impact of compound 1001 and TR100 (another small molecule with anti-tropomyosin activity) on myosin II ATPase activity was evaluated in the absence of Tpm3.1. The small molecule blebbistatin was included as a positive control known to inhibit myosin II ATPase activity. Blebbistatin acts by binding to the myosin-ADP-Pi complex and slowing the release of inorganic phosphate (Kovacs et al., 2004). Myosin II was pre-incubated with 50 μM of blebbistatin, TR100 or 1001 prior to mixing with F-actin. […] Compound 1001 had no effect on myosin ATPase activity at equivalent concentrations to that of TR100 (FIG. 4).

Sequence of Tpm3.1 (P06753 1-248 isoform P06753-2): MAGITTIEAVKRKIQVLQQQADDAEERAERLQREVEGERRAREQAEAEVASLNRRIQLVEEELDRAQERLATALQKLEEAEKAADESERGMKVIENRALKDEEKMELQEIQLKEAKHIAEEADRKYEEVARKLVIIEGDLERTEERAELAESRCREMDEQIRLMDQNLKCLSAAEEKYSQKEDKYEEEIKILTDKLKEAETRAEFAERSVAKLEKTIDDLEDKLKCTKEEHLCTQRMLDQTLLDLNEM
Sequence of alpha-fast Tm (P09493 whole entry): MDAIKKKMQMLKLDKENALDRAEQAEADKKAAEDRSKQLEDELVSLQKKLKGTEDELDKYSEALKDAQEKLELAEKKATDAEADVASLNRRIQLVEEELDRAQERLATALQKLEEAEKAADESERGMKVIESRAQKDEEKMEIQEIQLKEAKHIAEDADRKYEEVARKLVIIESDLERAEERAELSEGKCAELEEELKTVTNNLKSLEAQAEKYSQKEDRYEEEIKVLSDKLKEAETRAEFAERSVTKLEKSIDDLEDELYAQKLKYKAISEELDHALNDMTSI

Compound: CN(C)CCCn1c2ccccc2c2cc(C(=O)N3CCN(CCc4ccccc4)CC3)ccc21 [Compound 1001, (9-(3-(dimethylamino)propyl)-9H-carbazol-3-yl)(4-phenethylpiperazin-1-yl)methanone]
- reduction in melanoma tumor growth (A375 melanoma xenograft): ~40%
- tolerance of treatment (A375 melanoma xenograft): well tolerated
- polymerization and association of Tpm3.1 with actin (Tpm3.1): profoundly inhibited
- binding affinity and cooperativity of alpha-fast Tm for F-actin (alpha-fast Tm): not affected
- IC50 (SK-Mel-28 melanoma cells): 2.3 µM
- IC50 [1]: > 30 µM
- IC50 [2]: 5.5 µM
- IC50 [3]: 8.5 µM
- IC50 [4]: 4.4 µM
- disruption of the actin cytoskeleton [5]: strong on-target, dose-dependent profile
- effect on actin-activated myosin II ATPase activity (Skeletal myosin II): no effect
